Measurements as given in patent US20220002314A1 (priority 2018, published 2022).
pKi: −log10 of the molar value. Where two headings read alike, the source gives them in different places.

Legend:
[1] = target: Human α2δ-1 subunit of Cav2.2 calcium channel (Homo sapiens, UniProt P54289); experiment: biochemical; type: binding
Human μ-opioid receptor = Human μ-opioid receptor (Homo sapiens, UniProt P35372); experiment: biochemical; type: binding
Sequence of Human μ-opioid receptor (P35372 whole entry): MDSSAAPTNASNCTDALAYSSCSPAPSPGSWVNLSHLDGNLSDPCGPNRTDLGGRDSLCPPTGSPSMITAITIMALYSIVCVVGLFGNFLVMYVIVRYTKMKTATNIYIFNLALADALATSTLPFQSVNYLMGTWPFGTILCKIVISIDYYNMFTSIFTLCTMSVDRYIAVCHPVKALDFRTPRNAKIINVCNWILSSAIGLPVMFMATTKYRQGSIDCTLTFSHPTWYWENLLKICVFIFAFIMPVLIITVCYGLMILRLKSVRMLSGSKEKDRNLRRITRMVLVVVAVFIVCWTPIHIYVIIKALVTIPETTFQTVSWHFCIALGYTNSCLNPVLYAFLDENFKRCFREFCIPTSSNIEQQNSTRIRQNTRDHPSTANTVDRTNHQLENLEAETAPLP

Sequence of Human α2δ-1 subunit of Cav2.2 calcium channel (P54289 25-1103): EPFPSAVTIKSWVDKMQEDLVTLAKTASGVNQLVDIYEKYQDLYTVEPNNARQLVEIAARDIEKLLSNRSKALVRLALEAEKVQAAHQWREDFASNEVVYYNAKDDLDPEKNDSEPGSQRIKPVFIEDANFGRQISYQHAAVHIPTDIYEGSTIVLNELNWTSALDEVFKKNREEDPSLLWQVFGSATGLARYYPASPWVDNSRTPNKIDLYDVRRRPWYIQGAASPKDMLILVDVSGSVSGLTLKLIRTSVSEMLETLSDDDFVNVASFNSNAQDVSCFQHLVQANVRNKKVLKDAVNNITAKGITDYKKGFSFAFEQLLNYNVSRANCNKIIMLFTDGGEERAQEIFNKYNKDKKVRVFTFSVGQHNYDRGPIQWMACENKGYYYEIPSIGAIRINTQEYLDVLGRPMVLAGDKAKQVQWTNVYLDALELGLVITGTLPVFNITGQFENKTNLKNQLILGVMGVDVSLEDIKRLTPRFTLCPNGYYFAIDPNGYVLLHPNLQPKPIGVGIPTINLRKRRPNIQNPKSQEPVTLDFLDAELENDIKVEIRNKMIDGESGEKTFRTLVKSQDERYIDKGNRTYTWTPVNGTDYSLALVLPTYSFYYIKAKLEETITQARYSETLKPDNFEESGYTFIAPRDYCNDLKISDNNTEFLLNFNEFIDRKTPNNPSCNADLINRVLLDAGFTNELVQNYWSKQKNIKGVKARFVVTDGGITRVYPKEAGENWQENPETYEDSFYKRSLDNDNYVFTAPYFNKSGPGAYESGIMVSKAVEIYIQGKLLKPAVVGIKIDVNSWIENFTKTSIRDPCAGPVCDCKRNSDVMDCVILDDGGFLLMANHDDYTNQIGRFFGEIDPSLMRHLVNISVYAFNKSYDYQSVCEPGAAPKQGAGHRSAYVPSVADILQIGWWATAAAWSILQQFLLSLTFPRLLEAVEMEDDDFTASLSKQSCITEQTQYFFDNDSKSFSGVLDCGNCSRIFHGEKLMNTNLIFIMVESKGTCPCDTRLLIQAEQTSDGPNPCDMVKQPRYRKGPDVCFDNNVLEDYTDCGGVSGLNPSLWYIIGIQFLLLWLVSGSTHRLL

Row | pKi ([1]; read-out: α2δ-1 binding) | pKi (Human μ-opioid receptor; read-out: μ-binding) | SMILES | pKi [1] | pKi (Human μ-opioid receptor)
1 | – | – | CCCC(c1nc2cccnc2c(=O)n1CC)N1C[C@@H](C)N[C@@H](C)C1 (stereo partly drawn) [Example 27, 2-(1-((3S,5R)-3,5-dimethylpiperazin-1-yl)butyl)-3-ethylpyrido[3,2-d]pyrimidin-4(3H)-one] | > 6.30 | < 6.30
2 | – | – | CCCC(c1nc2ncc(Br)cc2c(=O)n1CC)N1C[C@@H](C)N[C@@H](C)C1 (stereo partly drawn) [Example 28, 6-bromo-2-(1-((3S,5R)-3,5-dimethylpiperazin-1-yl)butyl)-3-ethylpyrido[2,3-d]pyrimidin-4(3H)-one] | > 6.30 | < 6.30
3 | – | – | CCC[C@H](c1nc2ccc(Br)cc2c(=O)n1CC)N1C[C@@H](C)N[C@@H](C)C1 [Example 29, 6-bromo-2-((R)-1-((3S,5R)-3,5-dimethylpiperazin-1-yl)butyl)-3-ethylquinazolin-4(3H)-one] | > 6.30 | < 6.30
4 | – | – | CCC[C@@H](c1nc2ccc(Br)cc2c(=O)n1CC)N1C[C@@H](C)N[C@@H](C)C1 [Example 30, 6-bromo-2-((S)-1-((3S,5R)-3,5-dimethylpiperazin-1-yl)butyl)-3-ethylquinazolin-4(3H)-one] | 5.30 to 6.30 | < 6.30
5 | – | – | CCC[C@@H](c1nc2ccccc2c(=O)n1C)N1C[C@@H](C)N[C@@H](C)C1 [Example 31, 2-((S)-1-((3S,5R)-3,5-dimethylpiperazin-1-yl)butyl)-3-methylquinazolin-4(3H)-one] | 5.30 to 6.30 | < 6.30
6 | – | – | CCC[C@H](c1nc2ccccc2c(=O)n1C)N1C[C@@H](C)N[C@@H](C)C1 [Example 32, 2-((R)-1-((3S,5R)-3,5-dimethylpiperazin-1-yl)butyl)-3-methylquinazolin-4(3H)-one] | > 6.30 | < 6.30
7 | – | – | CCC[C@H](c1nc2ccccc2c(=O)n1CC)N1C[C@@H](C)N[C@@H](C)C1 [Example 34, 2-((R)-1-((3S,5R)-3,5-dimethylpiperazin-1-yl)butyl)-3-ethylquinazolin-4(3H)-one] | > 6.30 | < 6.30
8 | – | – | CCC[C@H](c1nc2ccc(O)cc2c(=O)n1CC)N1C[C@@H](C)N[C@@H](C)C1 [Example 35, 2-((R)-1-((3S,5R)-3,5-Dimethylpiperazin-1-yl)butyl)-3-ethyl-6-hydroxyquinazolin-4(3H)-one] | > 6.30 | < 6.30
9 | – | – | CCC[C@@H](c1nc2ccc(O)cc2c(=O)n1CC)N1C[C@@H](C)N[C@@H](C)C1 [Example 36, 2-((S)-1-((3S,5R)-3,5-dimethylpiperazin-1-yl)butyl)-3-ethyl-6-hydroxyquinazolin-4(3H)-one] | 5.30 to 6.30 | < 6.30
10 | – | – | CCC[C@@H](c1nc2c(F)cc(OC)cc2c(=O)n1CC)N1CCNCC1 [Example 37, (S)-3-Ethyl-8-fluoro-6-methoxy-2-(1-(piperazin-1-yl)butyl)quinazolin-4(3H)-one] | < 5.30 | < 6.30
11 | – | – | CCC[C@H](c1nc2c(F)cc(OC)cc2c(=O)n1CC)N1CCNCC1 [Example 38, (R)-3-ethyl-8-fluoro-6-methoxy-2-(1-(piperazin-1-yl)butyl)quinazolin-4(3H)-one] | > 6.30 | 6.30 to 7.00
12 | < 5.30 | < 6.30 | CCC[C@@H](c1nc2c(F)cc(OC)c(Br)c2c(=O)n1CC)N1CCNCC1 [Example 39, (S)-5-Bromo-3-ethyl-8-fluoro-6-methoxy-2-(1-(piperazin-1-yl)butyl)quinazolin-4(3H)-one] | – | –
13 | 5.30 to 6.30 | < 6.30 | CCC[C@H](c1nc2c(F)cc(OC)c(Br)c2c(=O)n1CC)N1CCNCC1 [Example 40, (R)-5-bromo-3-ethyl-8-fluoro-6-methoxy-2-(1-(piperazin-1-yl)butyl)quinazolin-4(3H)-one] | – | –
14 | – | – | CCC[C@H](c1nc2ccc(Br)cc2c(=O)n1C)N1CCN[C@@H](C)C1 [Example 41, 6-Bromo-3-methyl-2-((R)-1-((S)-3-methylpiperazin-1-yl)butyl)quinazolin-4(3H)-one] | > 6.30 | 6.30 to 7.00
15 | – | – | CCC[C@@H](c1nc2ccc(Br)cc2c(=O)n1C)N1CCN[C@@H](C)C1 [Example 42, 6-bromo-3-methyl-2-((S)-1-((S)-3-methylpiperazin-1-yl)butyl)quinazolin-4(3H)-one] | < 5.30 | < 6.30
16 | – | – | CCC[C@H](c1nc2ccccc2c(=O)n1CC)N1CCN[C@@H](C)C1 [Example 43, 3-Ethyl-2-((R)-1-((S)-3-methylpiperazin-1-yl)butyl)quinazolin-4(3H)-one] | > 6.30 | < 6.30
17 | – | – | CCC[C@@H](c1nc2ccccc2c(=O)n1CC)N1CCN[C@@H](C)C1 [Example 44, 3-ethyl-2-((S)-1-((S)-3-methylpiperazin-1-yl)butyl)quinazolin-4(3H)-one] | < 5.30 | < 6.30
18 | – | – | CCC[C@@H](c1nc2c(F)cc(OC)cc2c(=O)n1CC)N1CCN[C@@H](C)C1 [Example 45, 3-Ethyl-8-fluoro-6-methoxy-2-((S)-1-((S)-3-methylpiperazin-1-yl)butyl)quinazolin-4(3H)-one] | < 5.30 | < 6.30

Row | pKi ([1]; read-out: α2δ-1 binding) | pKi (Human μ-opioid receptor; read-out: μ-binding) | SMILES | pKi [1] | pKi (Human μ-opioid receptor)
19 | – | – | CCC[C@H](c1nc2c(F)cc(OC)cc2c(=O)n1CC)N1CCN[C@@H](C)C1 [Example 46, 3-ethyl-8-fluoro-6-methoxy-2-((R)-1-((S)-3-methylpiperazin-1-yl)butyl)quinazolin-4(3H)-one] | > 6.30 | 6.30 to 7.00
20 | – | – | CCC[C@H](c1nc2c(F)cc(Br)cc2c(=O)n1CC)N1CCN[C@H](C)C1 [Example 47, 6-Bromo-3-ethyl-8-fluoro-2-((R)-1-((R)-3-methylpiperazin-1-yl)butyl)quinazolin-4(3H)-one] | > 6.30 | < 6.30
21 | – | – | CCC[C@@H](c1nc2c(F)cc(Br)cc2c(=O)n1CC)N1CCN[C@H](C)C1 [Example 48, 6-bromo-3-ethyl-8-fluoro-2-((S)-1-((R)-3-methylpiperazin-1-yl)butyl)quinazolin-4(3H)-one] | < 5.30 | < 6.30
22 | – | – | CCC[C@H](c1nc2cc(Cl)c(Cl)cc2c(=O)n1CC)N1CCN[C@@H](C)C1 [Example 49, 6,7-Dichloro-3-ethyl-2-((R)-1-((S)-3-methylpiperazin-1-yl)butyl)quinazolin-4(3H)-one] | > 6.30 | 6.30 to 7.00
23 | – | – | CCC[C@@H](c1nc2cc(Cl)c(Cl)cc2c(=O)n1CC)N1CCN[C@@H](C)C1 [Example 50, 6,7-dichloro-3-ethyl-2-((S)-1-((S)-3-methylpiperazin-1-yl)butyl)quinazolin-4(3H)-one] | < 5.30 | < 6.30
24 | – | – | CCC[C@H](c1nc2c(F)cc(Br)cc2c(=O)n1CC)N1CCN[C@@H](C)C1 [Example 51, 6-Bromo-3-ethyl-8-fluoro-2-((R)-1-((S)-3-methylpiperazin-1-yl)butyl)quinazolin-4(3H)-one] | > 6.30 | 6.30 to 7.00
25 | – | – | CCC[C@@H](c1nc2c(F)cc(Br)cc2c(=O)n1CC)N1CCN[C@@H](C)C1 [Example 52, 6-bromo-3-ethyl-8-fluoro-2-((S)-1-((S)-3-methylpiperazin-1-yl)butyl)quinazolin-4(3H)-one] | < 5.30 | < 6.30
26 | – | – | CCC[C@H](c1nc2cc(F)c(Cl)cc2c(=O)n1CC)N1CCN[C@@H](C)C1 [Example 53, 6-Chloro-3-ethyl-7-fluoro-2-((R)-1-((S)-3-methylpiperazin-1-yl)butyl)quinazolin-4(3H)-one] | > 6.30 | 6.30 to 7.00
27 | – | – | CCC[C@@H](c1nc2cc(F)c(Cl)cc2c(=O)n1CC)N1CCN[C@@H](C)C1 [Example 54, 6-chloro-3-ethyl-7-fluoro-2-((S)-1-((S)-3-methylpiperazin-1-yl)butyl)quinazolin-4(3H)-one] | < 5.30 | < 6.30
28 | – | – | CCC[C@H](c1nc2ccc(Br)cc2c(=O)n1CC)N1CCN[C@H](CF)C1 [Example 55, 6-Bromo-3-ethyl-2-((R)-1-((S)-3-(fluoromethyl)piperazin-1-yl)butyl)quinazolin-4(3H)-one] | > 6.30 | < 6.30
29 | – | – | CCC[C@@H](c1nc2ccc(Br)cc2c(=O)n1CC)N1CCN[C@@H](CF)C1 [Example 56, 6-bromo-3-ethyl-2-((S)-1-((R)-3-(fluoromethyl)piperazin-1-yl)butyl)quinazolin-4(3H)-one] | < 5.30 | < 6.30
30 | – | – | CCC[C@@H](c1nc2ccc(Br)cc2c(=O)n1CC)N1CCN[C@H](CF)C1 [Example 57, 6-bromo-3-ethyl-2-((S)-1-((S)-3-(fluoromethyl)piperazin-1-yl)butyl)quinazolin-4(3H)-one] | > 6.30 | < 6.30
31 | – | – | CCC[C@H](c1nc2ccc(Br)cc2c(=O)n1CC)N1CCN[C@H](CO)C1 [Example 58, 6-Bromo-3-ethyl-2-((R)-1-((S)-3-(hydroxymethyl)piperazin-1-yl)butyl)quinazolin-4(3H)-one] | > 6.30 | < 6.30
32 | – | – | CCC[C@@H](c1nc2ccc(Br)cc2c(=O)n1CC)N1CCN[C@H](CO)C1 [Example 59, 6-bromo-3-ethyl-2-((S)-1-((S)-3-(hydroxymethyl)piperazin-1-yl)butyl)quinazolin-4(3H)-one] | < 5.30 | < 6.30
33 | – | – | CCC[C@H](c1nc2ccc(Br)cc2c(=O)n1CC)N1CCN[C@@H](CO)C1 [Example 60, 6-bromo-3-ethyl-2-((R)-1-((R)-3-(hydroxymethyl)piperazin-1-yl)butyl)quinazolin-4(3H)-one] | > 6.30 | < 6.30
34 | – | – | CCC[C@@H](c1nc2ccc(Br)cc2c(=O)n1CC)N1CCN[C@@H](CO)C1 [Example 61, 6-bromo-3-ethyl-2-((S)-1-((R)-3-(hydroxymethyl)piperazin-1-yl)butyl)quinazolin-4(3H)-one] | < 5.30 | < 6.30
35 | – | – | CCC[C@H](c1nc2cc(F)c(Br)cc2c(=O)n1C)N1CCN[C@@H](C)C1 [Example 62, 6-Bromo-7-fluoro-3-methyl-2-((R)-1-((S)-3-methylpiperazin-1-yl)butyl)quinazolin-4(3H)-one] | > 6.30 | 6.30 to 7.00
36 | – | – | CCC[C@@H](c1nc2cc(F)c(Br)cc2c(=O)n1C)N1CCN[C@@H](C)C1 [Example 63, 6-bromo-7-fluoro-3-methyl-2-((S)-1-((S)-3-methylpiperazin-1-yl)butyl)quinazolin-4(3H)-one] | < 5.30 | < 6.30
